Measured values from patent US5604219A, “Indolocarbazole derivatives that stimulate platelet production” (Kyowa Hakko Kogyo Co., Ltd., priority 1994, dated 1997).

Key:
[1] = test system: bone marrow cells (megakaryocyte colony formation); test: Megakaryocyte colony formation-stimulating activity (Test Example 1); assay type: cell-based, BALB/c mouse; settings: with IL-3 (100 U/ml), 7 days, control (IL-3 alone) defined as 100
Method: An eight-weeks-old BALB/c mouse was killed. Its femurs and cervical vertebrae were taken out, and both end sections thereof were cut off. Bone marrow cells were collected from the pieces cut off from the femurs and cervical vertebrae using a syringe containing IMDM (430-2200EA prepared by Gibco Co.), and then blown into a test tube. The test tube was allowed to stand for 5 minutes, and the supernatant was collected with a piper. To a reaction mixture comprising the bone marrow cells (50,000 cells), bovine serum albumin (2%: A4508 made by Sigma Co.), transferrin (600 μg/ml: 652202 made by Boehringer Mannheim Co.), IL-3 (100 U/ml), cholesterol (16 μg/ml: 036-0641 made by Wako Co.) and agar (0.6%: 0142-02 made by Difco Laboratories) were separately added the test compounds at various concentrations, and 1 ml each of the mixtures was put into a 35-mm dish (Lux Co.), followed by incubation under the conditions of 37° C. 5% CO2 and a humidity of 95% or more for 7 days. Separately, IL-3 alone was added to the bone marrow cells to prepare a control. After the incubation was completed, the agar was dried over a filter paper (1001-055 made by Whatman Co.) and then fixed with 2.5% glutaraldehyde, followed by acetylcholinesterase staining (ACHE staining).
The ACHE staining was carried out by the method described below.
ACHE staining: To each sample was added a solution comprising 0.67 mg/ml acetylthiocholine iodide, 2.94 mg/ml sodium citrate, 7.5 mg/ml copper (II) sulfate and 1.65 mg/ml potassium ferricyanide, and the mixture was allowed to stand at room temperature in the dark for 4-6 hours.
A group of 4 or more megakaryocytes which were stained reddish brown was regarded as a colony, and the number of colonies per dish was calculated using a microscope. The results are shown in Table 2 as relative values to the control.

platelets = test: Platelet production-stimulating activity in mice (Test Example 2); assay type: in vivo, male BALB/c mice; settings: intraperitoneal, once a day for 5 days, platelets counted on day 15, A test group, B control group
From the text: A test compound was intraperitoneally administered to four 7-week-old male BALB/c mice per group once a day for consecutive 5 days (day 1 to day 5). A control group (4 mice per group) received only the solvent (5% Tween water). The blood was collected from the fundus oculi vein of each animal on the 15th day from the start of administration (day 15), and the number of the platelets was counted with a microcell counter (Model CC-180A, manufactured by Toa Iryo Denshi Co.). The rate of increase of the number of platelets in the test group (average) over the control (average) was calculated according to the following formula to evaluate the effect of the test compound.
Rate of Increase = A/B × 100
A: the number of platelets in test group
B: the number of platelets in control group

CN[C@@H]1C[C@H]2O[C@@](C)([C@@H]1OC)n1c3ccccc3c3c4c(c5c6ccccc6n2c5c31)C(=O)N(CO)C4 [Compound 1]
Rel. Value (number of megakaryocyte colonies per dish, relative to control) ([1]; Concn. 1 nM): 129

CN[C@@H]1C[C@H]2O[C@@](C)([C@@H]1OC)n1c3ccccc3c3c4c(c5c6cc(C)ccc6n2c5c31)C(=O)N(C)C4 [Compound 8]
Rate of increase (number of platelets, A/B × 100) (platelets; 25 mg/kg): 134%
Rel. Value (number of megakaryocyte colonies per dish, relative to control) ([1]; Concn. 10 nM): 157

CN[C@@H]1C[C@H]2O[C@@](C)([C@@H]1OC)n1c3ccccc3c3c4c(c5c6cc(N)ccc6n2c5c31)C(=O)N(C)C4 [Compound 12]
Rel. Value (number of megakaryocyte colonies per dish, relative to control) ([1]; Concn. 10 nM): 126

CN[C@@H]1C[C@H]2O[C@@](C)([C@@H]1OC)n1c3ccc(N)cc3c3c4c(c5c6cc(N)ccc6n2c5c31)C(=O)N(C)C4 [Compound 16]
Rel. Value (number of megakaryocyte colonies per dish, relative to control) ([1]; Concn. 1 nM): 125

CN[C@@H]1C[C@H]2O[C@@](C)([C@@H]1OC)n1c3ccc(OC(=O)C(C)(C)C)cc3c3c4c(c5c6cc(OC(=O)C(C)(C)C)ccc6n2c5c31)C(=O)N(C)C4 [Compound 22]
Rate of increase (number of platelets, A/B × 100) (platelets; 50 mg/kg): 168%

CN[C@@H]1C[C@H]2O[C@@](C)([C@@H]1OC)n1c3ccccc3c3c4c(c5c6cc(C=NN(C)C)ccc6n2c5c31)C(=O)N(C)C4 [Compound 28]
Rate of increase (number of platelets, A/B × 100) (platelets; 12.5 mg/kg): 156%
Rel. Value (number of megakaryocyte colonies per dish, relative to control) ([1]; Concn. 1 nM): 134

CN[C@@H]1C[C@H]2O[C@@](C)([C@@H]1OC)n1c3ccccc3c3c4c(c5c6cc(CSCCN(C)C)ccc6n2c5c31)C(=O)N(C)C4 [Compound 30]
Rel. Value (number of megakaryocyte colonies per dish, relative to control) ([1]; Concn. 1 nM): 116
